# Source: patent US20130142868A1 (priority 2010, published 2013)
# Where two headings read alike, the source gives them in different places.
# Key:
# [1] = in vivo; cited from earlier work
# [2] = rat, in vivo
# [3] = test system: A549 human lung cancer cells; assay: Alamar Blue cell viability assay, A549; assay type: cell-based; settings: 72 h, 3 days incubation
# Experimental: HUVEC, LLC-PK1, and A549 lung cancer cells were purchased from ATCC. LLC-PK1 cells were cultured in DMEM supplemented with 10% FBS and antibiotics (100 U/mL penicillin G and 0.1 mg/mL streptomycin). HUVEC cells were cultured in F12-K media supplemented with 100 ug/ml endothelial cell growth supplement (BD Biosciences, Franklin Lakes, N.J.), 10% FBS, and antibiotics. A549 human lung cancer cells were cultured in F12-K media with 10% FBS and antibiotics. All cells were grown at 37° C. in a 5% CO2/95% air humidified atmosphere.
# Cell viability experiments were performed using the Alamar Blue dye reduction assay (Invitrogen, Carlsbad, Calif.). The experimental cell lines were plated at 1.0×10^4 cells/well in 96-well plates in recommended media and allowed to adhere overnight. The next day, cells were incubated with liposomes or free CCNU, with drug concentrations from 2.5 to 100 μM. Cells were also incubated with empty RGD-expressed and non-targeted liposomes. The control cells were only incubated in the recommended media. All experiments were performed in quadruplicate. Incubations were allowed to carry out for 3 days. […] Next, the wells were analyzed with a fluorescence plate reader with absorption and emission of 485/535 nm. All cell viability results are expressed as a percentage of viable cells compared to control cells.
# rats = settings: rat, in vivo
structure (smiles),measurement,setting,value
OC[C@@H](O)[C@@H](O)[C@H](O)[C@H](O)CO [mannitol],half life,[1],1.67 h
same,concentration at olfactory bulbs,"[2]; Sprague-Dawley, 30 min",about 2 nmol/g
same,"concentration in the brain's cortex, brain stem and spine","[2]; Sprague-Dawley, 30 min",0.2 to 0.4 nmol/g
same,"cortex concentration, increase POD compared to IV","[2]; Sprague-Dawley, 30 min",8.69 fold
same,"cortex concentration, increase POD compared to nose drops","[2]; Sprague-Dawley, 30 min",11.6 fold
same,"olfactory bulb concentration, increase POD compared to IV","[2]; Sprague-Dawley, 30 min",53.1 fold
same,"olfactory bulb concentration, increase POD compared to nose drops","[2]; Sprague-Dawley, 30 min",25.6 fold
same,"olfactory bulb concentration, increase POD compared to IV","[2]; Sprague-Dawley, 150 min",40.0 fold
same,"olfactory bulb concentration, increase POD compared to nose drops","[2]; Sprague-Dawley, 150 min",22.1 fold
same,"concentration in the brain's cortex, brain stem and spine","[2]; Sprague-Dawley, iv, 30 min",less than 0.02 nmol/g
same,"blood normalized olfactory bulb concentration, POD compared to nose drops",[2]; 30 min,18.6 fold
same,"brain-to-blood ratio (average of all brain tissues), increase POD compared to nose drops",[2]; 30 min,3.4 fold
Cc1c(O)cccc1C(=O)N[C@@H](CSc1ccccc1)[C@H](O)CN1C[C@H]2CCCC[C@H]2C[C@H]1C(=O)NC(C)(C)C [nelfinavir],"blood concentration, nose drop administration relative to POD administration","[2]; Sprague-Dawley, 30 min",3.2 times higher
same,"cortex concentration, increase POD compared to nose drops","[2]; Sprague-Dawley, 30 min",4.05 fold
same,"olfactory bulb concentration, increase POD compared to nose drops","[2]; Sprague-Dawley, 30 min",1.91 fold
same,"blood normalized olfactory bulb concentration, POD compared to nose drops",[2]; 30 min,3.6 fold
same,"brain-to-blood ratio (average of all brain tissues), increase POD compared to nose drops",[2]; 30 min,2.1 fold
same,"cortex concentration, increase POD compared to nose drops",[2]; 30 min,4.0 fold
same,"olfactory bulb concentration, increase POD compared to nose drops",[2]; 30 min,1.4 fold
"O=NN(CCCl)C(=O)NC1CCCCC1 [Free Drug, 1-(2-chloroethyl)-3-cyclohexyl-1-nitroso-urea]",IC50,"[3]; after aerosolization, read-out: IC50 values, post-aerosolization",70.5 ± 2.97 µM
same,IC50,"[3]; before aerosolization, read-out: IC50 values, pre-aerosolization",68.7 ± 2.48 µM
CN1CC[C@]23c4c5ccc(O)c4O[C@H]2[C@@H](O)C=C[C@H]3[C@H]1C5 [morphine],DTP % after POD administration,rats,38-55%
same,"DTP % after nose drops, depending on the dose",rats,0-10%
